{"source": "patent US9206130B2", "about": "“Quinoline derivatives as AXL kinase inhibitors” (Max-Planck-Gesellschaft zur Förderung der Wissenschaften …, priority 2008, dated 2015)", "key": {"[1]": {"target": "T1, wild type AXL (wtAXL) receptor tyrosine kinase (Homo sapiens, UniProt P30530)", "T1 construct": "WtAXL cDNA was cloned into vector pLXSN(ESK) and transfected into Phoenix E packaging cells; expressed in transfected cells; host or cells: NIH3T3 N7 mouse fibroblasts, retrovirally infected (clone 22)", "T1 sequence (P30530 26-894)": "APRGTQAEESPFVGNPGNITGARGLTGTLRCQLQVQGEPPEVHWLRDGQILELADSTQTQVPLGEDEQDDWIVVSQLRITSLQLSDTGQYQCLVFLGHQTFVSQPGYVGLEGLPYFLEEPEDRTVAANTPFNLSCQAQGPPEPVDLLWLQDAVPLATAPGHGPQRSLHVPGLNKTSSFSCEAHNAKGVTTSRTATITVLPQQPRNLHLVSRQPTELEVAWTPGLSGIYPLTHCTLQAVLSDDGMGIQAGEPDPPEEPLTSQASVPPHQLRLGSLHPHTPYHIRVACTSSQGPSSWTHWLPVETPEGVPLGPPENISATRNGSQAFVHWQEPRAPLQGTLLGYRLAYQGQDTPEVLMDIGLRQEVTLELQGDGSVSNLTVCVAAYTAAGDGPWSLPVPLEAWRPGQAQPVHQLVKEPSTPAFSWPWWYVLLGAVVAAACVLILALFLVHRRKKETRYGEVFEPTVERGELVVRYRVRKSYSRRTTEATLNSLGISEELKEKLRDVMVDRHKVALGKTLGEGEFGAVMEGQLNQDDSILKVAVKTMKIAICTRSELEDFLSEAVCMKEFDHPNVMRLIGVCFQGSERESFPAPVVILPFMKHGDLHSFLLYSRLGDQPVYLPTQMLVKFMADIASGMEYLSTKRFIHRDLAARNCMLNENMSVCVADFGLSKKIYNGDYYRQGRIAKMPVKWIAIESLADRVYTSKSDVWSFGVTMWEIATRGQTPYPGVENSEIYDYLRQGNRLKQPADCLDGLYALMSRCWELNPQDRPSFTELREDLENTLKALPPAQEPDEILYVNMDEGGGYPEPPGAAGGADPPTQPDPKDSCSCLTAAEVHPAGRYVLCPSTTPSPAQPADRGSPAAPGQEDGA", "test": "NIH-3T3-AXL cellular tyrosine kinase assay (inhibition of AXL phosphorylation)", "type": "cell-based", "settings": "AXL phosphorylation in NIH-3T3-AXL (clone 22) cells, serum-depleted, 2 h with compound, immunoprecipitation / anti-phosphotyrosine blot", "in_short": "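NIH3T3 clones stably expressing human wtAXL (puromycin-selected) were exposed to serially diluted compounds for 2 h. AXL was immunoprecipitated from lysates with anti-AXL antibody, and phosphorylation detected by anti-phosphotyrosine (4G10) western blot with ECL.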"}}}
{"smiles": "Cc1cc(Oc2ccc(NS(=O)(=O)c3cnc(C)[nH]3)cc2F)c2cccc(C(F)(F)F)c2n1", "note": "[Example C13, 2-Methyl-3H-imidazole-4-sulfonic acid [3-fluoro-4-(2-methyl-8-trifluoromethyl-quinolin-4-yloxy)-phenyl]-amide]", "values": [{"measurement": "IC50", "setting": "[1]", "result": "> 1000", "unit": "nM"}, {"measurement": "melting point", "result": "258 to 259", "unit": "°C"}]}
{"smiles": "Cc1cc(Oc2ccc(NS(=O)(=O)c3ccc(OCc4c(C)noc4C)cc3)cc2F)c2cccc(C(F)(F)F)c2n1", "note": "[Example C14, 4-(3,5-Dimethyl-isoxazol-4-ylmethoxy)-N-[3-fluoro-4-(2-methyl-8-trifluoromethyl-quinolin-4-yloxy)-phenyl]-benzenesulfonamide]", "values": [{"measurement": "IC50", "setting": "[1]", "result": "> 10000", "unit": "nM"}, {"measurement": "melting point", "result": "193 to 195", "unit": "°C"}]}
{"smiles": "Cc1cc(Oc2ccc(NS(=O)(=O)c3ccc(-c4ccccc4)cc3)c(F)c2)c2cccc(C(F)(F)F)c2n1", "note": "[Example C15]", "values": [{"measurement": "IC50", "setting": "[1]", "result": "> 10000", "unit": "nM"}, {"measurement": "melting point", "result": "215 to 217", "unit": "°C"}]}
{"smiles": "Cc1cc(Oc2ccc(NS(=O)(=O)c3cccc(-c4ncccn4)c3)c(F)c2)c2cccc(C(F)(F)F)c2n1", "note": "[Example C16, N-[2-Fluoro-4-(2-methyl-8-trifluoromethyl-quinolin-4-yloxy)-phenyl]-3-pyrimidin-2-yl-benzenesulfonamide]", "values": [{"measurement": "IC50", "setting": "[1]", "result": "> 10000", "unit": "nM"}, {"measurement": "melting point", "result": "219 to 220", "unit": "°C"}]}
{"smiles": "Cc1cc(Oc2ccc(NS(=O)(=O)c3cc4ccccc4s3)c(F)c2)c2cccc(C(F)(F)F)c2n1", "note": "[Example C17, Benzo[b]thiophene-2-sulfonic acid [2-fluoro-4-(2-methyl-8-trifluoromethyl-quinolin-4-yloxy)-phenyl]-amide]", "values": [{"measurement": "IC50", "setting": "[1]", "result": "> 10000", "unit": "nM"}, {"measurement": "melting point", "result": "182 to 184", "unit": "°C"}]}
{"smiles": "Cc1cc(Oc2ccc(NS(=O)(=O)c3csc4ccccc34)c(F)c2)c2cccc(C(F)(F)F)c2n1", "note": "[Example C18, Benzo[b]thiophene-3-sulfonic acid [2-fluoro-4-(2-methyl-8-trifluoromethyl-quinolin-4-yloxy)phenyl]-amide]", "values": [{"measurement": "IC50", "setting": "[1]", "result": "> 10000", "unit": "nM"}, {"measurement": "melting point", "result": "242 to 244", "unit": "°C"}]}
{"smiles": "Cc1cc(Oc2ccc(NS(=O)(=O)c3ccc4c(c3)CC(=O)N4C)c(F)c2)c2cccc(C(F)(F)F)c2n1", "note": "[Example C19, 1-Methyl-2-oxo-2,3-dihydro-1H-indole-5-sulfonic acid [2-fluoro-4-(2-methyl-8-trifluoro-methyl-quinolin-4-yloxy)-phenyl]-amide]", "values": [{"measurement": "IC50", "setting": "[1]", "result": "> 10000", "unit": "nM"}, {"measurement": "melting point", "result": "225 to 226", "unit": "°C"}]}
{"smiles": "COc1cc2c(Oc3ccc(NS(=O)(=O)c4cccc(-c5ccccc5)c4)c(F)c3)ccnc2cc1OCc1ccccc1", "note": "[Example D01, Biphenyl-3-sulfonic acid [4-(7-benzyloxy-6-methoxy-quinolin-4-yloxy)-2-fluoro-phenyl]-amide]", "values": [{"measurement": "IC50", "setting": "[1]", "result": "> 10000", "unit": "nM"}, {"measurement": "melting point", "result": "228 to 229", "unit": "°C"}]}
{"smiles": "COc1cc2c(Oc3ccc(NS(=O)(=O)c4cccc(-c5ccccc5)c4)cc3F)ccnc2cc1OCCN1CCOCC1", "note": "[Example D04, Biphenyl-3-sulfonic acid {3-fluoro-4-[6-methoxy-7-(2-morpholin-4-yl-ethoxy)-quinolin-4-yloxy]-phenyl}-amide]", "values": [{"measurement": "IC50", "setting": "[1]", "result": 320, "unit": "nM"}, {"measurement": "melting point", "result": "103 to 104", "unit": "°C"}]}
{"smiles": "COc1cc2c(Oc3ccc(NS(=O)(=O)c4ccccc4OC(F)(F)F)cc3F)ccnc2cc1OCCN1CCOCC1", "note": "[Example D06, N-{3-Fluoro-4-[6-methoxy-7-(2-morpholin-4-yl-ethoxy)-quinolin-4-yloxy]-phenyl}-2-trifluoromethoxy-benzenesulfonamide]", "values": [{"measurement": "IC50", "setting": "[1]", "result": 69, "unit": "nM"}, {"measurement": "melting point", "result": "185 to 187", "unit": "°C"}]}
{"smiles": "COc1cc2c(Oc3ccc(NS(=O)(=O)c4cccc(-c5ccccc5)c4)c(C)c3)ccnc2cc1OCCN1CCOCC1", "note": "[Example D07, Biphenyl-3-sulfonic acid {4-[6-methoxy-7-(2-morpholin-4-yl-ethoxy)-quinolin-4-yloxy]-2-methyl-phenyl}-amide]", "values": [{"measurement": "IC50", "setting": "[1]", "result": 350, "unit": "nM"}, {"measurement": "melting point", "result": "105 to 107", "unit": "°C"}]}
{"smiles": "COc1cc2c(Oc3ccc(NS(=O)(=O)c4ccccc4OC(F)(F)F)c(C)c3)ccnc2cc1OCCN1CCOCC1", "note": "[Example D08, N-{4-[6-Methoxy-7-(2-morpholin-4-yl-ethoxy)-quinolin-4-yloxy]-2-methyl-phenyl}-2-trifluoromethoxy-benzenesulfonamide]", "values": [{"measurement": "IC50", "setting": "[1]", "result": 2500, "unit": "nM"}, {"measurement": "melting point", "result": "186 to 188", "unit": "°C"}]}
{"smiles": "COc1cc2c(Oc3ccc(NS(=O)(=O)c4cc(F)ccc4F)c(C)c3)ccnc2cc1OCCN1CCOCC1", "note": "[Example D09, 2,5-Difluoro-N-{4-[6-methoxy-7-(2-morpholin-4-yl-ethoxy)-quinolin-4-yloxy]-2-methyl-phenyl}-benzenesulfonamide]", "values": [{"measurement": "IC50", "setting": "[1]", "result": 2460, "unit": "nM"}, {"measurement": "melting point", "result": "195 to 196", "unit": "°C"}]}
{"smiles": "COc1cc2c(Oc3ccc(NS(=O)(=O)c4ccccc4C(F)(F)F)c(C)c3)ccnc2cc1OCCN1CCOCC1", "note": "[Example D11, N-{4-[6-Methoxy-7-(2-morpholin-4-yl-ethoxy)-quinolin-4-yloxy]-2-methyl-phenyl}-2-trifluoromethyl-benzenesulfonamide]", "values": [{"measurement": "IC50", "setting": "[1]", "result": "> 3000", "unit": "nM"}, {"measurement": "melting point", "result": "127 to 130", "unit": "°C"}]}
{"smiles": "COc1cc2c(Oc3ccc(NS(=O)(=O)c4ccc(Cl)cc4F)cc3F)ccnc2cc1OCCN1CCOCC1", "note": "[Example D12, 4-Chloro-2-fluoro-N-{3-fluoro-4-[6-methoxy-7-(2-morpholin-4-yl-ethoxy)-quinolin-4-yloxy]-phenyl}-benzenesulfonamide]", "values": [{"measurement": "IC50", "setting": "[1]", "result": 300, "unit": "nM"}, {"measurement": "melting point", "result": "212 to 214", "unit": "°C"}]}
{"smiles": "COc1cc2c(Oc3ccc(NS(=O)(=O)c4ccc(OC)c5ccccc45)cc3F)ccnc2cc1OCCN1CCOCC1", "note": "[Example D13, 4-Methoxy-naphthalene-1-sulfonic acid {3-fluoro-4-[6-methoxy-7-(2-morpholin-4-yl-ethoxy)-quinolin-4-yloxy]-phenyl}-amide]", "values": [{"measurement": "IC50", "setting": "[1]", "result": 57, "unit": "nM"}, {"measurement": "melting point", "result": "189 to 190", "unit": "°C"}]}
{"smiles": "COc1cc2c(Oc3ccc(NS(=O)(=O)c4ccccc4OC(F)(F)F)cc3F)ccnc2cc1OCCCNC(=O)OC(C)(C)C", "note": "[Example D16, (3-{4-[2-Fluoro-4-(2-trifluoromethoxy-benzenesulfonylamino)-phenoxy]-6-methoxy-quinolin-7-yloxy}-propyl)-carbamic acid tert-butyl ester]", "values": [{"measurement": "IC50", "setting": "[1]", "result": 271, "unit": "nM"}, {"measurement": "melting point", "result": "181 to 183", "unit": "°C"}]}
{"smiles": "COc1cc2c(Oc3ccc(NS(=O)(=O)c4ccccc4C(F)(F)F)cc3F)ccnc2cc1OCCCN1CCC(C)CC1", "note": "[Example D17, N-(3-Fluoro-4-{6-methoxy-7-[3-(4-methyl-piperidin-1-yl)-propoxy]-quinolin-4-yloxy}-phenyl)-2-trifluoromethyl-benzenesulfonamide]", "values": [{"measurement": "IC50", "setting": "[1]", "result": 46, "unit": "nM"}, {"measurement": "melting point", "result": "110 to 112", "unit": "°C"}]}
{"smiles": "COc1cc2c(Oc3ccc(NS(=O)(=O)c4ccccc4Br)cc3F)ccnc2cc1OCCCN1CCC(C)CC1", "note": "[Example D18, 2-Bromo-N-(3-fluoro-4-{6-methoxy-7-[3-(4-methyl-piperidin-1-yl)-propoxy]-quinolin-4-yloxy}-phenyl)-benzenesulfonamide]", "values": [{"measurement": "IC50", "setting": "[1]", "result": 151, "unit": "nM"}, {"measurement": "melting point", "result": "184 to 186", "unit": "°C"}]}
{"smiles": "COc1cc2c(Oc3ccc(NS(=O)(=O)c4ccc(F)cc4F)cc3F)ccnc2cc1OCCCN1CCC(C)CC1", "note": "[Example D19, 2,4-Difluoro-N-(3-fluoro-4-{6-methoxy-7-[3-(4-methyl-piperidin-1-yl)-propoxy]-quinolin-4-yloxy}-phenyl)-benzenesulfonamide]", "values": [{"measurement": "IC50", "setting": "[1]", "result": 128, "unit": "nM"}, {"measurement": "melting point", "result": "135 to 137", "unit": "°C"}]}
{"smiles": "COc1cc2c(Oc3ccc(NS(=O)(=O)c4c(F)cccc4F)cc3F)ccnc2cc1OCCCN1CCC(C)CC1", "note": "[Example D20, 2,6-Difluoro-N-(3-fluoro-4-{6-methoxy-7-[3-(4-methyl-piperidin-1-yl)-propoxy]-quinolin-4-yloxy}-phenyl)-benzenesulfonamide]", "values": [{"measurement": "IC50", "setting": "[1]", "result": 29, "unit": "nM"}, {"measurement": "melting point", "result": "200 to 203", "unit": "°C"}]}
{"smiles": "COc1cc2c(Oc3ccc(NS(=O)(=O)c4cccc5ccccc45)cc3F)ccnc2cc1OCCCN1CCC(C)CC1", "note": "[Example D21, Naphthalene-1-sulfonic acid (3-fluoro-4-{6-methoxy-7-[3-(4-methyl-piperidin-1-yl)-propoxy]-quinolin-4-yloxy}-phenyl)-amide]", "values": [{"measurement": "IC50", "setting": "[1]", "result": 347, "unit": "nM"}, {"measurement": "melting point", "result": "140 to 143", "unit": "°C"}]}
{"smiles": "CCCS(=O)(=O)Nc1ccc(Oc2ccnc3cc(OCCCN4CCC(C)CC4)c(OC)cc23)c(F)c1", "note": "[Example D22, Propane-1-sulfonic acid (3-fluoro-4-{6-methoxy-7-[3-(4-methyl-piperidin-1-yl)-propoxy]-quinolin-4-yloxy}-phenyl)-amide]", "values": [{"measurement": "IC50", "setting": "[1]", "result": 477, "unit": "nM"}, {"measurement": "melting point", "result": "160 to 162", "unit": "°C"}]}
{"smiles": "COc1cc2c(Oc3ccc(NS(=O)(=O)c4ccccc4C#N)cc3F)ccnc2cc1OCCCN1CCC(C)CC1", "note": "[Example D23, 2-Cyano-N-(3-fluoro-4-{6-methoxy-7-[3-(4-methyl-piperidin-1-yl)-propoxy]-quinolin-4-yloxy}-phenyl)-benzenesulfonamide]", "values": [{"measurement": "IC50", "setting": "[1]", "result": 211, "unit": "nM"}, {"measurement": "melting point", "result": "139 to 142", "unit": "°C"}]}
